Laboratory results from article PMC3070790 (Bioorganic & medicinal chemistry letters, 2011).
“Also recorded” adds a separate entry of the source. Read-outs that look alike come from different tables or passages of the source.

Key:
[1] = target: T1, light chain of BoNT serotype A (LC/A) (Clostridium botulinum, UniProt P0DPI1); assay type: biochemical
[2] = test system: primary rat cerebellar neurons; assay type: cell-based
[3] = target: T1, light chain of BoNT serotype A (LC/A); conditions: cited from earlier work

T1 sequence (P0DPI1 2-448 limits assumed): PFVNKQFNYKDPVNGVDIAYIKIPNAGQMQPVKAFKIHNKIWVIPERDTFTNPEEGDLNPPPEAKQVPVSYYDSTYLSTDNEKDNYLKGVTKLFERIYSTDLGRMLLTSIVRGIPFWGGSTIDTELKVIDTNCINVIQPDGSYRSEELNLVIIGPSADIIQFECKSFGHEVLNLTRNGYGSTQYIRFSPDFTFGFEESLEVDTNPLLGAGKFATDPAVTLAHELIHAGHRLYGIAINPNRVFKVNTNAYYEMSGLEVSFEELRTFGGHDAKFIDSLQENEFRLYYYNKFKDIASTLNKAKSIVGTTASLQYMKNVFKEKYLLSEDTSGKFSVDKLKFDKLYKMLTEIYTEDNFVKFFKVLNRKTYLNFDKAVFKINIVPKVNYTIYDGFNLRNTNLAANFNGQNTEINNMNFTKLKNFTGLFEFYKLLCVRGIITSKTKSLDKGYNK

With `C=C(C)[C@@H]1CC[C@]2(COC(=O)CCC(=O)O)CC[C@]3(C)[C@H](CC[C@@H]4[C@@]5(C)CC[C@H](O)C(C)(C)[C@@H]5CC[C@]43C)[C@@H]12` [Compound 7, 28-hemisuccinylbetulin] the Ki [1] was “sub-micromolar”, the mechanism of inhibition [1] was “competitive” and the “protection against BoNT/A (intracellular SNAP-25 cleavage)” value [2] was “did not show any protection; also recorded: did not show inhibitory activity; also recorded: did not demonstrate protection”.

With `C=C(C)[C@@H]1CC[C@]2(COC(=O)COc3cc(C(C)C)ccc3C)CC[C@]3(C)[C@H](CC[C@@H]4[C@@]5(C)CC[C@H](O)C(C)(C)[C@@H]5CC[C@]43C)[C@@H]12` [Compound 8, betulinyl 28-carboxymethoxycarvacrolate] the “fold less potent than 7 (Ki)” value [1] was “about 16 fold” and the mechanism of inhibition [1] was “competitive”.

In the case of `C=C(C)[C@@H]1CC[C@]2(C(=O)O)CC[C@]3(C)[C@H](CC[C@@H]4[C@@]5(C)CC[C@H](O)C(C)(C)[C@@H]5CC[C@]43C)[C@@H]12` [Compound 18, betulinic acid], the “fold less potent than 7 (Ki)” value [1] is reported as ~18 fold and the mechanism of inhibition [1] is reported as “competitive”.

In the case of `O=C(/C=C/c1ccc(O)c(O)c1)O[C@H](C(=O)O)[C@H](OC(=O)/C=C/c1ccc(O)c(O)c1)C(=O)O` [D-chicoric acid], the mechanism of inhibition [3] is listed as “noncompetitive partial inhibition”.
